Measured values: patent publication US8895717B2, “Delivery of siRNA by neutral lipid compositions” (The Board of Regents of the University of Texas System, priority 2005, dated 2014)
d = 2'-deoxy (DNA); r = 2'-OH (RNA)

Legend:
HeyA8 cells = assay: In vivo therapy with DOPC-FAK siRNA, HeyA8 model; design: species or system nude mice; conditions: for Incidence (%) / No. Nodules: siRNA in DOPC twice weekly, docetaxel 50 μg weekly
Experimental: siRNA for in vivo delivery was incorporated into the phospholipid 1,2-dioleoyl-sn-glycero-3-phosphatidylcholine (DOPC). DOPC and siRNA were mixed in the presence of excess tertiary-butanol at a ratio of […], as previously described (Landen et al., 2005). Tween-20 was added to the mixture at a ratio of 1:19. The mixture was vortexed, frozen in an acetone/dry ice bath, and lyophilized. Before in vivo administration, this preparation was hydrated with normal (0.9%) saline at a concentration of 15 μg/ml to achieve the desired dose of 150-200 μl per injection. To estimate the quantity of siRNA not taken up by liposomes free siRNA was separated from liposomes by using filter units with a 30,000 nominal molecular weight limit (Millipore Corp, Billerica, Mass.). The liposomal suspension was added to the filters and centrifuged at 5,000 g for 40 min at room temperature. Fractions were collected, the material trapped in the filter was reconstituted with 0.9% saline, and the amount of siRNA in the collected fraction and eluent were measured by spectrophotometry.
To produce tumors, SKOV3ip1, Hey A8-MDR cells (1×10^6 cells/0.2 ml of HBSS) and Hey A8 cells (2.5×10^5 cells/0.2 ml of HBSS) were injected interperitoneally (i.p.) into the mice. For in vivo injections, cells were trypsinized and centrifuged at 1000 rpm for 7 minutes at 4° C., washed twice with PBS and reconstituted in serum-free Hank's balanced salt solution (HBSS, Life Technologies, Carlsbad, Calif.). Only single-cell suspensions with >95% viability, as determined by trypan blue exclusion, were used for the in vivo injections. Mice (n=10 per group) were monitored for adverse effects of therapy and were sacrificed on day 35 (SKOV3ip1) or day 28 (HeyA8 or HeyA8-MDR) or when any of the mice began to appear moribund. Mouse weight, tumor weight, and tumor distribution were recorded. Tissue specimens were snap frozen for lysate preparation, fixed in formalin for paraffin embedding or frozen on OCT compound (Miles, Inc., Elkhart, Ind.) for frozen slide preparation.
Based on the results of preliminary dose-response studies, a series of three separate therapy studies were initiated using the optimal FAK siRNA dosage. Tumor cells were injected i.p. and 7 days later, the mice were randomly assigned to five treatment groups: empty liposome twice weekly, non-specific control […] siRNA (3 μg) twice weekly, control FAK siRNA (3 μg) twice weekly in combination with 50 μg docetaxel weekly, FAK siRNA twice weekly and FAK siRNA (3 μg) twice weekly in addition to 50 μg docetaxel weekly.
The SKOV3ip1 or HeyA8 ovarian cancer cells were implanted into the peritoneal cavity of athymic nude mice for experiments designed to test the therapeutic potential of FAK-targeted inhibition of gene expression. Seven days later, therapy was started according to the following five treatment groups: 1) empty liposomes; 2) non-specific siRNA-DOPC; 3) docetaxel plus non-specific siRNA-DOPC; 4) FAK targeted siRNA-DOPC; and 5) docetaxel plus FAK-targeted siRNA-DOPC. The animals were sacrificed after 4 weeks of therapy and a necropsy was performed. The data for these therapies' effects on SKOV3ip1 and HeyA8 are summarized in FIGS. 6A and 6B, respectively. […] Treatment with FAK siRNA alone or docetaxel plus control siRNA were effective in inhibiting tumor growth (54 to 74%) in both cell lines compared with control (FIG. 13).

HeyA8 orthotopic model = assay: Angiogenesis (MVD), proliferation (PCNA), apoptosis (TUNEL), VEGF and MMP-9 in harvested tumors; assay type: in vivo, nude mice; conditions: for endothelial cell apoptosis: CD31 and TUNEL dual localization
Experimental: Expression of PCNA was determined by IHC analysis using paraffin-embedded tumors. Sections (8-μm thick) were deparaffinized in xylene, treated with a graded series of alcohol [100%, 95%, 80% ethanol/double distilled H2O (v/v)], and rehydrated in PBS (pH 7.5). Antigen retrieval was performed by microwave heating for 5 minutes in 0.1 M citrate buffer pH 6.0, followed by blocking of endogenous […] with 3% H2O2 in methanol for 5 min. After PBS wash ×2, slides were blocked with 5% normal horse serum and 1% normal goat serum in PBS for 15 min at room temperature, followed by incubation with primary antibody (anti-PCNA, PC-10, mouse IgG, Dako), in blocking solution overnight at 4° C. After two PBS washes, the appropriate secondary antibody conjugated to horseradish peroxidase, in blocking solution, was added for 1 hour at room temperature. HRP was detected with DAB (Phoenix Biotechnologies, Huntsville, Ala.) substrate for 5 minutes, washed, and counterstained with Gil No. 3 hematoxylin (Sigma) for 20 sec. IHC for CD31 was performed on freshly cut frozen tissue. […] The primary antibody used was anti-CD31 (PECAM-1, rat IgG, Pharmingen). Staining for PCNA and CD31 was conducted on tumors collected at the conclusion of 4 week therapy trials.
To quantify MVD, 10 random 0.159-mm^2 fields at ×100 final magnification were examined for each tumor (1 slide per mouse, 5 slides per group), and the number of microvessels per field were counted. A single microvessel was defined as a discrete cluster or single cell stained positive for CD31 (CD31), and the presence of a lumen was required for scoring as a microvessel. To quantify PCNA expression, the number of positive cells (DAB staining) was counted in 10 random 0.159-mm^2 fields at ×100 magnification. To quantify TUNEL positive cells, the number of green fluorescence positive cells was counted in 10 random 0.01-mm^2 fields at ×400 magnification.
Expression of PCNA was determined by IHC analysis using paraffin-embedded tumors. Sections (8-μm thick) were mounted on positively charged Superfrost slides (Fisher Scientific Co., Houston, Tex.) and dried overnight. Sections were deparaffinized in xylene, treated with a graded series of alcohol [100%, 95%, 80% ethanol/double distilled H2O (v/v)], and rehydrated in PBS (pH 7.5). Antigen was retrieved by placing the slides in water and then boiling them in a microwave on high power for 5 min. Expression of CD31 was determined using fresh frozen tissues that were cut into 4-μm thick sections and mounted on positively charged slides. The slides were stored at −80° C.; sections were fixed in cold acetone for 10 min. and then washed twice with PBS for 3 min each time. A positive reaction was visualized by incubating the slides with stable 3,3 diaminobenzidine for 10-20 min. The sections were rinsed with distilled water, counterstained with Gill's hematoxylin for 1 min and mounted with Universal mount (Research Genetics).
To determine potential mechanisms underlying the efficacy of anti-FAK based therapy, its effects on several biological endpoints were examined, including angiogenesis (MVD), proliferation (PCNA), and apoptosis (TUNEL). Due to growing evidence related to FAK and tumor angiogenesis (Kornberg et al., 2004; Mitra et al., 2005). The inventors evaluated vessel density (FIG. 14B) in the tumors harvested from the studies described above. […]

| Substance | Incidence (%) (HeyA8 cells) | No. Nodules (HeyA8 cells) | endothelial cell apoptosis (HeyA8 orthotopic model) | mean MVD compared with empty liposomes (HeyA8 orthotopic model; CD31 staining) | VEGF and MMP-9 expression (HeyA8 orthotopic model; IHC) | PCNA expression compared to empty liposome or control siRNA (HeyA8 orthotopic model; mouse, in vivo) | reduction of tumors compared with empty liposomes (HeyA8 cells) |
| --- | --- | --- | --- | --- | --- | --- | --- |
| FAK siRNA: sense r(CCACCUGGGCCAGUAUUAU)d(TT), antisense r(AUAAUACUGGCCCAGGUGG)d(TT); for in vivo delivery incorporated into DOPC (sense CCACCUGGGCCAGUAUUAUTT; antisense AUAAUACUGGCCCAGGUGGTT; sugars from the 5' end r19 d2, backbone not given here) | 70% | 1.7 | significantly increased | mean MVD was reduced | substantially reduced | Minimal reduction of PCNA expression |  |
| control siRNA: sense r(UUUUCCGAACGUGUCACGU)dTT, antisense r(ACGUGACACGUUCGGAGAA)dTT, no homology with human mRNA; in vivo in DOPC (sense UUUUCCGAACGUGUCACGUTT; antisense ACGUGACACGUUCGGAGAATT; sugars from the 5' end r19 d2, backbone not given here) | 100% | 4.0 | no apotosis seen in endothelial cells |  |  |  | about 39% |
